In patent US20130324522A1, “INSECT ODORANT RECEPTOR ANTAGONISTS” (THE ROCKEFELLER UNIVERSITY, priority 2010, published 2013):
Like-named read-outs stand apart in the source and are kept apart here.

Legend:
Type in all cases: cell-based
[1] = molecular target: T1, OR1/OR7 (Anopheles gambiae, UniProt Q7QCC7+Q8WTE7); test: Ca2+-imaging of stable HEK293T cell line OR1/OR7
T1 construct: Full-length cDNAs for mosquito (Anopheles gambiae) odorant receptor (OR1, OR2, OR7, OR8, OR28); expressed in transfected cells
T1 sequence (Q8WTE7 1-417): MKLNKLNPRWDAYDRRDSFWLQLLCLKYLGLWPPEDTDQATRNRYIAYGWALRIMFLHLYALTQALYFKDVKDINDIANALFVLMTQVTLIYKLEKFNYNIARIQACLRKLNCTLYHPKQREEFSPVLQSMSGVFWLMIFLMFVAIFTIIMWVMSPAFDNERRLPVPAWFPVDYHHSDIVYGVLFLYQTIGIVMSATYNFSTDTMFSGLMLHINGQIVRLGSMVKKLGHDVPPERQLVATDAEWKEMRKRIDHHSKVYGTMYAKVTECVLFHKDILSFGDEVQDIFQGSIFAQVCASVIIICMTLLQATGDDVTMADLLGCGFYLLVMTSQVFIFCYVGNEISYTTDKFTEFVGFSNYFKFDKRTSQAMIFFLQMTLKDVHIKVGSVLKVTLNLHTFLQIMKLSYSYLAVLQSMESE
T1 sequence (Q7QCC7 1-478): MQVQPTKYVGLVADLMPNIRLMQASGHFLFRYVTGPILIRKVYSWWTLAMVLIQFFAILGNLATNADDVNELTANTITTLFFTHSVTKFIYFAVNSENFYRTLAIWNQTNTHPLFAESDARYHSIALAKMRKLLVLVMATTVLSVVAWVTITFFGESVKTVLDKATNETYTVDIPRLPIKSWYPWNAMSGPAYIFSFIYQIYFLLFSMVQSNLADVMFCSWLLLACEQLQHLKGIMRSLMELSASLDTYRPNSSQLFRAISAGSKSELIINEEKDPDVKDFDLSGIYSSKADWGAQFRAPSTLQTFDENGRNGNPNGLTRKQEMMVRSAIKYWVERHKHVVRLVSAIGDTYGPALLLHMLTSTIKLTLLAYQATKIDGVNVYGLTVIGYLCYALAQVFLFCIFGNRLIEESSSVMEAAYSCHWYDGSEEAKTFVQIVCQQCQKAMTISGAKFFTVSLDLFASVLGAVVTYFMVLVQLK
Experimental: (§1) Full-length cDNAs for mosquito (Anopheles gambiae) odorant receptor (OR1, OR2, OR7, OR8, OR28), and fly (Drosophila melanogaster) odorant receptor (Or47a, Or83b), mouse TRP channel (TRPM8), and mouse serotonin receptor (5HT3) were obtained and subcloned into mammalian expression vectors. The following mammalian expression vectors were used:
(§2) Stable cell lines OR1/OR7, OR2/OR7, OR8/OR7, OR10/OR7, OR28/OR7 and TRPM8 were generated from HEK293T cells. HEK293T-based cell lines were cultured in DMEM supplemented with these additional antibiotics: 6 μg/mL blasticidin and 1 μg/mL puromycin, with the exception of the TRPM8 cell lines, which was cultured in DMEM supplemented with 1 μg/mL puromycin.
(§3) Cells were trypsinized and split into 35 mm dishes one day before transfection. Confluent cells (60-70%) in 35 mm dishes were transfected with 1 μg of insect OR(X) plasmids in pME18s-bla and 1 μg of OR7-pME18s-puro using lipofectamine 2000. For Anopheles odorant receptors, two plasmids were co-transfected into HEK cells: the ligand-specific receptor (OR1, OR2, OR8, OR28) and the corresponding olfactory co-receptor: OR7. Cell lines containing TRPM8 were transfected with single plasmid.
(§4) Stable cell lines were cultured in 10 cm dishes, and confluent cells (70-80%) were trypsinized. 10,000 cells/20 μL were transferred into each well of 384-well plates coated with poly-D-lysine, and cultured for 2 days. For Flip-In T-Rex cells (cell lines expressing Or47a/Or83b and 5HT3), 5 μL of tetracycline (5 μg/mL) were added 1 day before the assay. 20 μL of Ca-4 dye was loaded into each well for 1.5 hr at room temperature in the dark, and the dye-loaded plates were subjected to Ca^2+-imaging using a Hamamatsu FDSS6000 real time fluorescence plate reader. Odorant solutions (9× final concentration) were prepared by dissolving 1M stock solutions into Hank's Buffered Salt Solution (HBSS), and 30 μL of odor solution was transferred to each well in 384-well plates.
(§5) Compounds ([…] in DMSO) were stored in 384-well plates, and last two columns (32 wells total) contained only DMSO. 200 nL of small compounds were transferred into the odorant plates before the assay using the Perkin-Elmer Janus workstation. The odorant plates were spun down to remove air bubbles, and placed on the FDSS6000 plate loader, and 5 μL of odorant solution was applied to the cell plate on the FDSS6000. Ca^2+ increase was monitored with fluorescence at 525 nm by excitation at 485 nm.

[2] = molecular target: T2, OR2/OR7 (Anopheles gambiae, UniProt Q7QCC7+Q8WTE6); test: Ca2+-imaging of stable HEK293T cell line OR2/OR7
T2 construct: Full-length cDNAs for mosquito (Anopheles gambiae) odorant receptor (OR1, OR2, OR7, OR8, OR28); expressed in transfected cells
T2 sequence (Q8WTE6 1-378): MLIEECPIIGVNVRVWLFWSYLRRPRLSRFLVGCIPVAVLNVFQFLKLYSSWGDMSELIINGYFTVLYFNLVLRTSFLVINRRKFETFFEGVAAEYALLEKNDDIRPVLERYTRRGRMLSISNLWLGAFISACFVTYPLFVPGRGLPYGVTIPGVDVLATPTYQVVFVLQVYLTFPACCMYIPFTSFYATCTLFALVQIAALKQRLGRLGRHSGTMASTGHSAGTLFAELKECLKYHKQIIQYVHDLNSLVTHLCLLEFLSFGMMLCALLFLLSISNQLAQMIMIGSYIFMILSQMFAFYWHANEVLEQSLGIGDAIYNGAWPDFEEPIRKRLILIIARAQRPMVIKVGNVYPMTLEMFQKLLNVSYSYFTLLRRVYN
T2 sequence (Q7QCC7 1-478): T1 sequence (Q7QCC7 1-478)
Experimental: as §1, §2, §3, §4, §5

[3] = molecular target: OR10/OR7 (Anopheles gambiae, UniProt B5U0U7+Q7QCC7); test: Ca2+-imaging of stable HEK293T cell line OR10/OR7
Experimental: as §2
After one day of incubation, the transfected cells were transferred into 10 cm dishes with DMEM containing antibiotics as follows: • 0.5 μg/mL of blasticidin for OR1/OR7, OR2/OR7, OR8/OR7, OR10/OR7, OR28/OR7 • 0.2 μg/mL of puromycin for TRPM8.
as §4, §5

[4] = molecular target: T3, TRP channel (TRPM8) (Mus musculus, UniProt Q8R4D5); test: Ca2+-imaging of stable HEK293T cell line TRPM8
T3 construct: Full-length cDNAs for mosquito (Anopheles gambiae) odorant receptor (OR1, OR2, OR7, OR8, OR28), and fly (Drosophila melanogaster) odorant receptor (Or47a, Or83b), mouse TRP channel (TRPM8); expressed in transfected cells
Experimental: as §1, §2, §3, §4, §5

[5] = molecular target: OR28/OR7 (Anopheles gambiae, UniProt A0A1S4GFY3+Q7QCC7); test: Ca2+-imaging of stable HEK293T cell line OR28/OR7
Experimental: as §1, §2, §3, §4, §5

[6] = ligand 4-methyl phenol 30 μM, read-out: IC50 OR1 OR7
[7] = ligand 2-methyl phenol 30 μM, read-out: IC50 OR2 OR7
[8] = ligand menthol 300 μM, read-out: IC50 TRPM8
[9] = ligand indole 30 μM, read-out: IC50 OR10 OR7
[10] = ligand acetophenone 300 μM, read-out: IC50 OR28 OR7

Sequence of OR28/OR7 (A0A1S4GFY3 entry or part of it, one chain of several): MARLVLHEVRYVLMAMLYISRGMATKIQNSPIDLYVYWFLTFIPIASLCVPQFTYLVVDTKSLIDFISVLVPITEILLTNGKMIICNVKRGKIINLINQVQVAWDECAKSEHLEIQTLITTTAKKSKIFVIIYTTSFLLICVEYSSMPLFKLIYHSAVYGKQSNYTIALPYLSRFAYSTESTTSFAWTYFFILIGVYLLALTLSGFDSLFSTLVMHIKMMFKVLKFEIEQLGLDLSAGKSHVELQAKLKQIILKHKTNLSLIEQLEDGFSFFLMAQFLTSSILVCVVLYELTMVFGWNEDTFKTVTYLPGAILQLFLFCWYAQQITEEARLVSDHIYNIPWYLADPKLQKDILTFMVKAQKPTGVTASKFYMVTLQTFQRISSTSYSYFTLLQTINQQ
T3 sequence (Q8R4D5 whole entry): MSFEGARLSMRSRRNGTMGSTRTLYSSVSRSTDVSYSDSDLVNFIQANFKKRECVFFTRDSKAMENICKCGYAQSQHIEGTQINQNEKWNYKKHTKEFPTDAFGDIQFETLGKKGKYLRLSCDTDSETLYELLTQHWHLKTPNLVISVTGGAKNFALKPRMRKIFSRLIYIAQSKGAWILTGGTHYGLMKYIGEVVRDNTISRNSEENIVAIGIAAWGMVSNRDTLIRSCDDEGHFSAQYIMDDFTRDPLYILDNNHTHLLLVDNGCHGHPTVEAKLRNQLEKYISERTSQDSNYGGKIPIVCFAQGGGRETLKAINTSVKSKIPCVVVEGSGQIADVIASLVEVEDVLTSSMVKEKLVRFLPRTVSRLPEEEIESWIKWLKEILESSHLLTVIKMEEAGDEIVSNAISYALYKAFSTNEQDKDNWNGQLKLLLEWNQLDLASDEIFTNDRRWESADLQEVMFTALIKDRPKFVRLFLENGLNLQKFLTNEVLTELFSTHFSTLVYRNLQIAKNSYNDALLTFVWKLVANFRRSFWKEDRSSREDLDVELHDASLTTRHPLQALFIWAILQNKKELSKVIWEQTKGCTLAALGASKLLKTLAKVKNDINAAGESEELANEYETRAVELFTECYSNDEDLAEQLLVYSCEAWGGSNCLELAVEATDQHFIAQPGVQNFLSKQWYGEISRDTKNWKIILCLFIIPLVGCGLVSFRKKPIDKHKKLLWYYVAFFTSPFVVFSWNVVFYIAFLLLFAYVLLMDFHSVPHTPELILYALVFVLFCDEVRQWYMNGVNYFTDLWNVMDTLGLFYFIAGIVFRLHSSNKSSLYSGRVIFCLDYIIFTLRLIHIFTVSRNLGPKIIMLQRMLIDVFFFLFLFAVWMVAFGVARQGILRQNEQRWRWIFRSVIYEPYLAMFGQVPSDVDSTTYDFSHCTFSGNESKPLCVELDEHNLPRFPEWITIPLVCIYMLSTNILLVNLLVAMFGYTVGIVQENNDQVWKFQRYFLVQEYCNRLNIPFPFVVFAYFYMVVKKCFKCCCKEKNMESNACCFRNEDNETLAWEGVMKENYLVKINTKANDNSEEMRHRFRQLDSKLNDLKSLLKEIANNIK
Sequence of OR10/OR7 (B5U0U7 entry or part of it, one chain of several): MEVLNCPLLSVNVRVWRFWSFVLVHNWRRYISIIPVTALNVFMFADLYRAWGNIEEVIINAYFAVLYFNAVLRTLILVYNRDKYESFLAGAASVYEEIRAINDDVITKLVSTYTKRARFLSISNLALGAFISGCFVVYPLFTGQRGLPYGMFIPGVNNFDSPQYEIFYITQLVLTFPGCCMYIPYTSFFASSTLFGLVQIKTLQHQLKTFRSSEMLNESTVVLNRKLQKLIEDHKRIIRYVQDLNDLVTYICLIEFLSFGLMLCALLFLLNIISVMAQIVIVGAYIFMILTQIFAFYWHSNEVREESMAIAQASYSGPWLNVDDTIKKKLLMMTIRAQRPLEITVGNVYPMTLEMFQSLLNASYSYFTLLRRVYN

| SMILES | IC50 [1, 6] | IC50 [2, 7] | IC50 [3] | IC50 [4] | IC50 [5] | IC50 [4, 8] | IC50 [3, 9] | IC50 [5, 10] | IC50 [1] | IC50 [2] |
| --- | --- | --- | --- | --- | --- | --- | --- | --- | --- | --- |
| Cc1nc(NC(C)C)nc(NC(C)C)n1 [RU-T6] | 2 to 20 µM | > 20 µM | > 20 µM | > 20 µM | 20 to 50 µM | – | – | – | – | – |
| CC(C)Nc1nc(Cl)nc(NC(C)C)n1 [RU-T1] | < 2 µM | < 2 µM | > 20 µM | – | > 220 µM | > 20 µM | – | – | – | – |
| Fc1cccc(Cl)c1Cn1ccnc1CN(CC1CCCC1)C1CC1 [RU-I4] | < 2 µM | 2 to 20 µM | – | – | – | > 20 µM | > 20 µM | 2 to 20 µM | – | – |
| CCN(CC)C(=O)c1cccc(C)c1 [DEET, N,N-diethyl-m-toluamide, reference compound] | – | – | – | – | – | > 20 µM | > 50 µM | > 50 µM | > 740 µM | > 20 µM |
| CC(C)Nc1nc(Cl)nc(N(C)C(C)C)n1 [RU-T7] | < 2 µM | < 2 µM | > 20 µM | > 20 µM | > 20 µM | – | – | – | – | – |
| CC(C)Nc1nc(NC(C)C)nc(C(F)(F)F)n1 [RU-T8] | < 2 µM | < 2 µM | > 20 µM | > 20 µM | > 20 µM | – | – | – | – | – |
| CCNc1nc(Cl)nc(NC(C)C)n1 [RU-T5] | – | – | 2 to 20 µM | – | > 20 µM | > 20 µM | – | – | < 2 µM | < 2 µM |
| O=C(C1CCCC1)N(Cc1nccn1CCc1c(F)cccc1Cl)C1CC1 [RU-I2] | < 2 µM | < 2 µM | – | – | – | > 20 µM | 2 to 20 µM | 2 to 20 µM | – | – |
| CCNc1nc(NCC)nc(SC)n1 [RU-T4] | 2 to 20 µM | 20 to 50 µM | 20 to 50 µM | – | > 20 µM | > 20 µM | – | – | – | – |
| CCNc1nc(NC(C)C)nc(SC)n1 [RU-T3] | – | – | 2 to 20 µM | – | 2 to 20 µM | > 20 µM | – | – | > 220 µM | 2 to 20 µM |
| CC(C)Nc1nc(Cl)nc(NCc2ccccc2)n1 [RU-T9] | < 2 µM | > 20 µM | > 20 µM | > 20 µM | > 50 µM | – | – | – | – | – |
| CSc1nc(NC(C)C)nc(NC(C)C)n1 [RU-T2] | – | – | 2 to 20 µM | – | 2 to 20 µM | > 20 µM | – | – | 2 to 20 µM | 2 to 20 µM |
| CN(Cc1nccn1Cc1c(F)cccc1Cl)C(=O)C1CCCC1 [RU-I5] | < 2 µM | < 2 µM | – | – | – | > 20 µM | > 20 µM | 2 to 20 µM | – | – |
| O=C(c1nccn1Cc1c(F)cccc1Cl)N(CC1CCCC1)C1CC1 [RU-I3] | < 2 µM | 2 to 20 µM | – | – | – | > 20 µM | 2 to 20 µM | < 2 µM | – | – |
| C=CCN(Cc1nccn1Cc1cccc(F)c1)C(=O)c1ccccc1F [RU-I1] | < 2 µM | < 2 µM | – | – | – | > 20 µM | 2 to 20 µM | 20 to 50 µM | – | – |
